# Results: patent US20080076801A1, “Indolylalkylpyridin-2-amines for the inhibition of beta-secretase” (Wyeth, priority 2006, published 2008)
# Legend:
# [1] = target: human BACE1 (Homo sapiens, UniProt P56817); assay: BACE1 fluorescent kinetic assay (cleavage of peptide substrate WABC-6); format: biochemical; conditions: 5 μM inhibitor; 10 nM enzyme, 25 μM substrate, pH 4.5, room temperature; read-out: BACE-1 % Inhibition at 5 μM
# Method: Evaluation of BACE1 Binding Affinity of Test Compounds
# Fluorescent Kinetic Assays
# Final Assay Conditions: 10 nM human BACE1 (or 10 nM Murine BACE1, 1.5 nM human BACE2), 25 μM substrate (WABC-6, MW 1549.6, from AnaSpec), Buffer: 50 mM Na-Acetate, pH 4.5, 0.05% CHAPS, 25% PBS, room temperature. Na-Acetate was from Aldrich, Cat.# 24, 124-5, CHAPS was from Research Organics, Cat. # 1304C 1×, PBS was from Mediatech (Cellgro), Cat# 21-031-CV, peptide substrate AbzSEVNLDAEFRDpa was from AnaSpec, Peptide Name: WABC-6
# Determination of stock substrate (AbzSEVNLDAEFRDpa) concentration: ˜25 mM stock solution is made in DMSO using the peptide weight and MW, and diluted to ˜25 μM (1:1000) in 1×PBS. Concentration is determined by absorbance at 354 nm using an extinction coefficient ε of 18172 M^−1cm^−1, the concentration of stock substrate is corrected, and the substrate stock stored in small aliquots in −80° C. [Substrate Stock]=ABS^354 nm*10^6/18172 (in […]) The extinction coefficient ε^354 nm was adapted from TACE peptide substrate, which had the same quencher-fluorophore pair. Determination of Stock Enzyme Concentration: the stock concentration of each enzyme is determined by absorbance at 280 nm using an ε of 64150 M^−1cm^−1 for hBACE1 and MuBACE1, 62870 M^−1cm^−1 for hBACE2 in 6 M Guanidinium Hydrochloride (from Research Organics, Cat. # 5134G-2), pH ˜6. The extinction coefficient ε^280 nm for each enzyme was calculated based on known amino acid composition and published extinction coefficients for Trp ([…]) and Tyr ([…]) residues (Anal. Biochem. 182, 319-326). Dilution and mixing steps: total reaction volume: 100 μL
# 2× inhibitor dilutions in buffer A (66.7 mM Na-Acetate, pH 4.5, 0.0667% CHAPS) were prepared,
# 4× enzyme dilution in buffer A (66.7 mM Na-Acetate, pH 4.5, 0.0667% CHAPS) were prepared,
# 100 μM substrate dilution in 1×PBS was prepared, and
# 50 μL 2× Inhibitor, 25 μL 100 μM substrate are added to each well of 96-well plate (from DYNEX Technologies, VWR #: 11311-046), immediately followed by 25 μL 4× enzyme (added to the inhibitor and substrate mix), and the fluorescence readings are initiated.
# Fluorescence Readings: Readings at λex 320 nm and λem 420 nm are taken every 40 sec for 30 min at room temperature and the linear slope for substrate cleavage rate (vi) determined.
# Calculation of % Inhibition: % Inhibition=100*(1−vi/v0) vi: substrate cleavage rate in the presence of inhibitor v0: substrate cleavage rate in the absence of inhibitor IC50 Determination: % Inhibition=((B*IC50^n)+(100*I0^n))/(IC50^n+I0^n) (Model # 39 from LSW Tool Bar in Excel where B is the % inhibition from the enzyme control, which should be close to 0.) % Inhibition is plotted vs. Inhibitor Concentration (I0) and the data fit to the above equation to obtain IC50 value and Hill number (n) for each compound. Testing at least 10 different inhibitor concentrations is preferred.
# Sequence of human BACE1 (P56817 46-501): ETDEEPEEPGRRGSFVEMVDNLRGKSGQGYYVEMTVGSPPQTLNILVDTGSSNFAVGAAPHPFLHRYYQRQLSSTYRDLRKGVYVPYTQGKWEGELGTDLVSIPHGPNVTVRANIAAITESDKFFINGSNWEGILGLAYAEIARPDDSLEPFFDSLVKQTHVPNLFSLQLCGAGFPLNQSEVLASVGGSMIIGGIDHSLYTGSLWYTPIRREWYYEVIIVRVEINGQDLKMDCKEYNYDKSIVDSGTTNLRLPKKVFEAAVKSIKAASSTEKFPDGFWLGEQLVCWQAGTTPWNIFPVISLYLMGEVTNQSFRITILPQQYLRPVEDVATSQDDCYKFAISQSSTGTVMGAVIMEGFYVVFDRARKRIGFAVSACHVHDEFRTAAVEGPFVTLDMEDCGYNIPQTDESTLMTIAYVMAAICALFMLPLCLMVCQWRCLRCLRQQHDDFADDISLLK
inhibition at 5 µM [1] [%],melting point [°C],SMILES
71.8,–,"Nc1cccc(Cn2c(-c3ccccc3Cl)cc3ccc(CCCCO)cc32)n1 [Example 24, 4-[1-(6-Aminopyridin-2-ylmethyl)-2-(2-chlorophenyl)-1H-indol-6-yl]butan-1-ol]"
31.6,64 to 66,"Nc1cccc(Cn2c(-c3ccccc3Cl)cc3ccc(OCc4ccccc4)cc32)n1 [Example 9, 6-{[6-(benzyloxy)-2-(2-chlorophenyl)-1H-indol-1-yl]methyl}pyridin-2-amine]"
38.6,128 to 130,"CCCOc1ccc2cc(-c3ccccc3Cl)n(Cc3cccc(N)n3)c2c1 [Example 15, 6-{[2-(2-chlorophenyl)-6-propoxy-1H-indol-1-yl]methyl}pyridin-2-amine]"
49.5,60 to 64,"Nc1cccc(Cn2c(-c3ccccc3Cl)cc3ccc(OCc4cccc(F)c4)cc32)n1 [Example 11, 6-({2-(2-chlorophenyl)-6-[(3-fluorobenzyl)oxy]-1H-indol-1-yl}methyl)pyridin-2-amine]"
36.3,67 to 69,"COc1cccc(COc2ccc3cc(-c4ccccc4Cl)n(Cc4cccc(N)n4)c3c2)c1 [Example 14, 6-({2-(2-chlorophenyl)-6-[(3-methoxybenzyl)oxy]-1H-indol-1-yl}methyl)pyridin-2-amine]"
33.2,65 to 68,"Nc1cccc(Cn2c(-c3ccccc3Cl)cc3ccc(OCc4cc(F)ccc4F)cc32)n1 [Example 12, 6-({2-(2-chlorophenyl)-6-[(2,5-difluorobenzyl)oxy]-1H-indol-1-yl}methyl)pyridin-2-amine]"
13.8,60 to 62,"Nc1cccc(Cn2c(-c3ccccc3Cl)cc3ccc(OCc4cccc(C(F)(F)F)c4)cc32)n1 [Example 13, 6-[(2-(2-chlorophenyl)-6-{[3-(trifluoromethyl)benzyl]oxy}-1H-indol-1-yl)methyl]pyridin-2-amine]"
56.6,–,"Nc1cccc(Cn2c(-c3ccccc3Cl)cc3ccc(C#CCCF)cc32)n1 [Example 21, 6-{[6-(4-fluorobutyn-1-yl)-2-(2-chlorophenyl)-1H-indol-1-yl]methyl}pyridin-2-amine]"
39.8,115 to 117,"Nc1cccc(Cn2c(-c3ccccc3Cl)cc3ccc(Oc4cncnc4)cc32)n1 [Example 17, 6-{[2-(2-chlorophenyl)-6-(pyrimidin-5-yloxy)-1H-indol-1-yl]methyl}pyridin-2-amine]"
67.5,–,"Nc1cccc(Cn2c(-c3ccccc3Cl)cc3ccc(C#CCCO)cc32)n1 [Example 20, 4-{1-[(6-Aminopyridin-2-yl)methyl]-2-(2-chlorophenyl)-1H-indol-6-yl}but-3-yn-1-ol]"
30.1,174 to 176,"COc1ccc2cc(-c3ccccc3Cl)n(Cc3cccc(N)n3)c2c1 [Example 16, 6-{[2-(2-chlorophenyl)-6-methoxy-1H-indol-1-yl]methyl}pyridin-2-amine]"
31.7,189 to 191,"Nc1cccc(Cn2c(-c3ccccc3Cl)cc3ccc(Br)cc32)n1 [Example 19, 6-{[6-Bromo-2-(2-chlorophenyl)-1H-indol-1-yl]methyl}pyridin-2-amine]"
58,65 to 67,"N#Cc1cccc(COc2ccc3cc(-c4ccccc4Cl)n(Cc4cccc(N)n4)c3c2)c1 [Example 10, 3-({[1-[(6-aminopyridin-2-yl)methyl]-2-(2-chlorophenyl)-1H-indol-6-yl]oxy}methyl)benzonitrile]"

# Continued, compound first:
SMILES,inhibition at 5 µM [1] [%],melting point [°C]
"Nc1cccc(Cn2c(-c3ccccc3Cl)cc3ccc(CCCCCO)cc32)n1 [Example 25, 5-[1-(6-Aminopyridin-2-ylmethyl)-2-(2-chlorophenyl)-1H-indol-6-yl]pentan-1-ol]",77.3,–
"Nc1cccc(Cn2c(-c3ccccc3Cl)cc3ccc(C#CCCCF)cc32)n1 [Example 31, 6-{[2-(2-chlorophenyl)-6-(5-fluoropent-1-yn-1-yl)-1H-indol-1-yl]methyl}pyridin-2-amine]",64.6,–
"Nc1cccc(Cn2c(-c3ccccc3Cl)cc3ccc(C#CCCCCO)cc32)n1 [Example 23, 6-{1-[(6-Aminopyridin-2-yl)methyl]-2-(2-chlorophenyl)-1H-indol-6-yl}hex-5-yn-1-ol]",81.1,–
"Nc1cccc(Cn2c(-c3ccccc3Cl)cc3ccc(C#CCCCO)cc32)n1 [Example 22, 5-{1-[(6-Aminopyridin-2-yl)methyl]-2-(2-chlorophenyl)-1H-indol-6-yl}pent-4-yn-1-ol]",71.2,–
"Nc1cccc(Cn2c(-c3ccccc3Cl)cc3ccc(C#CCCCCF)cc32)n1 [Example 32, 6-{[2-(2-chlorophenyl)-6-(6-fluorohex-1-yn-1-yl)-1H-indol-1-yl]methyl}pyridin-2-amine]",53.4,–
Nc1cccc(Cn2c(-c3ccccc3)cc3ccccc32)n1 [Example 30],24.6,45 to 47
"N#CCCCOc1ccc2cc(-c3ccccc3Cl)n(Cc3cccc(N)n3)c2c1 [Example 8, 4-{[1-[(6-aminopyridin-2-yl)methyl]-2-(2-chlorophenyl)-1H-indol-6-yl]oxy}butanenitrile]",79,–
"COCCC#Cc1ccc2cc(-c3ccccc3Cl)n(Cc3cccc(N)n3)c2c1 [Example 27, 6-{[2-(2-Chlorophenyl)-6-(4-methoxybut-1-yn-1-yl)-1H-indol-1-yl]methyl}pyridin-2-amine]",51,–
"Nc1cccc(Cn2c(-c3ccccc3Cl)cc3ccc(CCCCCCO)cc32)n1 [Example 26, 6-[1-(6-Aminopyridin-2-ylmethyl)-2-(2-chlorophenyl)-1H-indol-6-yl]hexan-1-ol]",107,–
"COCCCC#Cc1ccc2cc(-c3ccccc3Cl)n(Cc3cccc(N)n3)c2c1 [Example 28, 6-{[2-(2-Chlorophenyl)-6-(5-methoxypent-1-yn-1-yl)-1H-indol-1-yl]methyl}pyridin-2-amine]",53,–
